From patent publication US5721106A, “In Vitro method for screening β-amyloid deposition” (Regents of the University of Minnesota, priority 1994, dated 1998) come the findings set out here.

Ends that are not written are not given here.

For test [1], the target named is T1, labelled β-amyloid peptide (Homo sapiens, UniProt P05067).
T1 construct: made in house; host or cells: chemical synthesis (solid-phase Fmoc) or purchased unlabelled peptide (Bachem); radioiodinated in house
The test can be described thus: In vitro aggregation of labelled β-amyloid peptide in the absence of plaques (centrifugation, supernatant counting). It is filed as biochemical. The settings on record: about 10^-9 M labelled peptide, 50 mM Tricine pH 7.5; SDS at 0.01%. On the procedure: A solution of about 10^-9 M labelled β-amyloid peptide in 50 mM Tricine buffer at pH 7.5 was prepared from stock solution of the peptide as described hereinabove in Example 1. The solution was aliquotted into several reaction vessels (polypropylene microcentrifuge tubes) and allowed to stand at room temperature with occasional vortex mixing. At various times, the tubes were centrifuged at 12000 g for 4 minutes, and the fraction of initial (t=0) cpm of labelled peptide remaining in the supernatant fraction determined by removing a small aliquot for counting. The rate of disappearance was dependent on a variety of other conditions which were evaluated using this assay. Thus, the rate of the disappearance depends on peptide concentration (faster at higher peptide concentrations), and on ionic strength (faster at higher salt concentrations). The rate of disappearance was further dependent on the presence of certain detergents such as sodium dodecylsulfate (SDS) (faster in 0.01% SDS; see, FIG. 4), and on the presence of certain organic solvents (slower in the presence of acetonitrile).

Test [2] concerns ceilan katia yarn (silk). The test can be described thus: Effect of detergents and zinc on deposition of tracer onto silk. It is filed as binding, Bombyx silkworm. The settings on record: detergent concentration 0 to 1%.
The test system of a further test is tissue plaques. In words: Effect of metal ions, chelating agent and detergents on deposition of labelled peptide on tissue plaques. It is filed as binding, human. The text has this:
A deposition-enhancing agent may be added prior to the addition of the deposition-affecting agent to be tested.

A further test concerns AD plaques. The test can be described thus: Deposition of ^125 I-labelled β-amyloid peptides onto plaques in AD brain tissue (homogenate binding, autoradiography). The arrangement: species or system human. How it is done: Fragments labelled in accordance with the method described herein can be combined with amyloid plaque derived from Alzheimer's disease tissue or other amyloid substance such as silk, and tested for activity, for example, their ability to deposit on these materials.
Brain tissue was obtained form normal and Alzheimer's disease patients at 0.5 to 14 hours postmortem, frozen on dry ice after collection, and stored at -20° C. until use. For filter binding studies, tissue homogenates were prepared after the method of H. P. Too and M. R. Hanley, Biochem. J. 252:545 (1988), the disclosure of which is incorporated by reference herein. Tissue was homogenized (Polytron, setting 7-8, 5-10 sec) in 5-10 volumes of 50 mM Tricine (pH 7.5) containing 10% sucrose and protease inhibitors (0.01% bacitracin, 0.002% soybean trypsin inhibitor, 0.0002% chicken egg trypsin inhibitor, 1 mM benzamidine hydrochloride) and pelleted at 10,000 g for 20 minutes. The homogenate was then resuspended and washed several times in Tricine buffer containing 120 mM NaCl, 10 mM EDTA, 300 mM KCl and centrifuged at 40,000 g for 20 minutes and stored at -20° C. for less than two months. Membranes (equivalent to about 30 mg tissue) were resuspended in 0.5 ml 50 mM TrisHCl (pH 7.5) containing 1 mg/ml bovine serum albumin (BSA), 10 mM MnCl2, 0.004% bacitracin, 0.002% chymostatin, 0.004% leupeptin, 0.1% dimethylsulfoxide for 30 minutes prior to addition of the radioligand (10^-11 to 10^-9 M) and various concentrations of unlabelled peptides in the same buffer.
After incubating for two hours at room temperature, the homogenates (final volume 0.575 ml) were filtered through glass fiber filters (Whatman GF/D), presoaked for at least two hours in 1 mg/ml BSA and rinsed with 25 mM Tricine (pH 7.5). After washing twice with 25 mM TrisHCl (pH 7.5) at room temperature, the filters were counted in a gamma counter.
For tissue autoradiography, unfixed tissue was serially sectioned at 5-15 μm and thaw-mounted onto gelatin-coated slices. Slide-mounted sections were stored at -20° C. in closed boxes over desiccant for less than three months before use. Sections were preincubated for 30 minutes and incubated with the radioligand for two hours under the same conditions according to the aforedescribed homogenate binding study. Alternatively, 50 mM TrisHCl rather than Tricine may be used as the buffer. For estimating nonspecific binding, paired serial sections were incubated with the radioligand in the presence of a 10^4 to 10^5 fold excess of the unlabelled peptide. Following incubation with the radioligand, the slides were washed with 50 mM TrisHCl pH 7.5 (four times, two minutes each at 4° C.), then dried at 4° C. and stored in closed boxes over desiccant at room temperature overnight. The fully dried slides were then placed in apposition to tritium-sensitive film alongside iodinated standards. After one week's exposure at -20° C., the film was developed, fixed and washed. […] This approach generated film autoradiograms for quantitative densitometry,a high resolution emulsion autoradiograms for detailed histology, and a counterstained section for identification of cell types from each tissue section.
Briefly peptides were purchased or synthesized by fluorenemethoxycarbonyl chemistry on polystyrene resins, using acid-labile blocking groups for sidechain protection, cleaved with trifluoroacetic acid, and purified by RP-HPLC. […] Autoradiograms were quantitated by densitometry. […] To study the peptide fragments in water we developed a novel approach, measuring NMR data at 750 MHz using a prototype 10 mm ^1 H pulsed field gradient probe. Modified two-dimensional homonuclear TOCSY and NOESY experiments were measured at several pH values and structural information was derived using standard methods.

For the next test, the system named is adult rat brain. In words: Binding of radiolabelled rat β-amyloid peptide to rat brain.
Test [3] deals with ceilan katia yarn (silk). In words: Deposition of radiolabelled β-amyloid peptides onto silk. It is filed as binding, Bombyx silkworm. The note with it: in the presence of Triton X-100 (FIG. 5).
Method: Peptide deposition was conducted and detected as described in Example 2, except that instead of using brain tissue obtained from patients with Alzheimer's disease, silk was used as a template for β-amyloid deposition. The silk specimens were wound about or placed on a glass microscope slide and treated exactly as a piece of Alzheimer's disease (AD) brain tissue was treated in Example 2, using the same solutions, incubations times, etc. Experiments involving AD brain sections and control fabrics, such as nylon and cotton, were conducted in parallel.
Although screens of the many available silks were done at pH 8.5, later experiments were conducted at a preferably lower pH. Silk deposition experiments were done in 96-well plates. Labelled β-amyloid peptide concentration ranged from 20-100 pM, and the amount of silk used per assay ranged 0.5 to 5 mg.
In test [4] the target is amyloid plaques in Alzheimer's disease brain tissue (homogenates and thin sections). The test can be described thus: deposition of labelled fragment.
In another test the target is silk. The test can be described thus: deposition of radiolabelled peptide onto ceilan katia yarn with Triton X-100.

T1 sequence (P05067 672-711): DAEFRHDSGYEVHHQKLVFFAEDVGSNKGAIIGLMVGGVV

In the case of `CCCCCCCCCCCCOS(=O)(=O)[O-].[Na+]` [SDS, sodium dodecyl sulfate], the “rate of disappearance of tracer from the supernatant (aggregation)” value in test [1] is “faster”. In addition, the “effect of detergent on rate of deposition (binding) onto silk” value in the test with ceilan katia yarn (silk) [2] is “increase binding rate”. Besides, the “effect of detergent on deposition of labelled peptide on tissue plaques” value in the test with tissue plaques is listed as “enhance deposition”.
Take `CC#N` [acetonitrile]: the “rate of disappearance of tracer from the supernatant (aggregation)” value in test [1] is reported as “slower”.
In the case of “Radiolabelled rat β-amyloid peptide^1-40: radiolabelled rat β-amyloid peptide 1-40 (DAEFGHDSGFEVRHQKLVFFAEDVGSNKGAIIGLMVGGVV; also: radiolabelled, label site not given here; UniProt P08592 672-711, looked up)”, the “binding to Alzheimer's disease or normal human tissue” value in the test on AD plaques is listed as “failed to bind”. In addition, the “binding to adult rat brain” value with adult rat brain is reported as “failed to bind”.
Take “βA(1-40)-NH2: derivatized 40-mer, with a carboxyamide at the C-terminus”: the “deposition activity of fragment (active / not active)” value in the test on AD plaques (labelled fragment combined with AD amyloid plaque or silk, relative to βA(1-40)-OH) is given as “active”. For the same molecule, in the test with ceilan katia yarn (silk) [3], the “deposition of radiolabelled peptide onto ceilan katia yarn (silk)” value is on record as “active”.

B1: βA(26-42)-NH2 (peptide)
peptide: SNKGAIIGLMVGGVVIA-NH2
modifications: also: 125I-labelled after acylation with 4-hydroxyphenylpropionic acid, site not given here
For the molecule B1, in test [4], the fold activity relative to β-amyloid peptide is 3 fold. The molecule also gave a fold activity relative to βA(1-40)-OH and βA(1-40)-NH2 in the test with silk of 3 times.
